Results from patent US8815935B2, “Inhibitors of protein prenyltransferases” (The Regents of the University of California, priority 2008, dated 2014).
Where two headings read alike, the source gives them in different places.

Legend:
GGTase-I = target: T1, GGTase-I (Rattus norvegicus, UniProt P53610+Q04631); assay: In vitro GGTase-I enzyme assay (IC50, kinetics); type: biochemical
T1 construct: purchased JENA BIOSCIENCE
Procedure: The GGTase-I assay was carried out using RhoA as a substrate protein, GGTase-I (JENA Bioscience) and [3H]geranylgeranyl pyrophosphate. Incubation was for 30 min at 37° C. GGTase-II (or RabGGTase) assay was carried out using YPTI as a substrate protein, GGTase-II (Calbiochem, San Diego, Calif.) plus REP1 (Calbiochem) and [3H]geranylgeranyl pyrophosphate. Incubation was for 30 min at 37° C. FIGS. 20D-20F show the three dimensional structure of GGTase I (D), FTsse (E) and GGTase II (F) which can be obtained from X-ray diffraction studies of protein crystals.
(§1) GGTase-I and FTase activities were determined by following the incorporation of radiolabeled isoprenoid [^3H]-geranylgeranyl or [^3H]-farnesyl into substrate proteins. FTase or GGTase-I (50 nM) were used to initiate reactions containing 0.4 μM of [^3H]-FPP or 0.5 μM of [^3H]-GGPP and 2 μM of MBP-tagged substrates (K-Ras4B for FTase; RhoA for GGTase-I) in 20 μl of buffer {50 mM Tris-HCl (pH 7.5), 10 mM MgCl2, […] and 5 mM DTT}. Inhibitors were added at the indicated concentrations. The final DMSO concentration was 2.5% for all samples.
(§2) Reactions were carried out for 10 min at 30° C. The reaction mixture was spotted onto a filter paper, treated with 10% trichloroacetic acid (TCA) followed by ethanol and acetone washing. The filter was counted using a scintillation counter. Kinetic assays in which the GGPP concentration was varied employed fixed concentrations of GGTase-I and RhoA, and reactions were carried out for 5 min. Similarly, fixed concentrations of GGTase-I and GGPP were used when the amount of RhoA was varied.

FTase = target: T2, FTase (Rattus norvegicus, UniProt Q02293+Q04631); assay: In vitro FTase assay (K-Ras4B substrate, [3H]FPP); type: biochemical
T2 construct: purchased JENA BIOSCIENCE
Excerpt: To further characterize the pilot library, inhibitors of protein farnesyltransferase were identified. This was accomplished by using K-Ras4B as a substrate protein, tritiated farnesylpyrophosphate ([^3H]FPP) and protein farnesyltransferase. See Finegold, A. A., Johnson, D. I., Farnsworth, C. C., Gelb, M. H., Judd, S. R., Glomset, J. A. and Tamanoi, F. (1991) Protein geranylgeranyltransferase of Saccharomyces cerevisiae is specific for Cys-Xaa-Xaa-Leu motif and requires the CDC43 gene product but not the DPR1 gene product. Proc. Natl. Acad. Sci. USA 88, 4448-4452. […] On the other hand, the structure of the compounds P1-F11, P2-B7 and P2-E9 resemble those of GGTIs. The FTI P1-F11 resembles the GGTI P1-F10, while the FTI P2-B7 resembles the GGTI P2-C10. The FTI P2-E9 is similar to the GGTI P2-G3. Similarity of some GGTI and FTI compounds may point to common structural features between the two closely related enzymes. As described before, FTase and GGTase I have similar three-dimensional structures and a shared alpha subunit. On the other hand, FTase specific inhibitors may recognize a region(s) that is different between the two enzymes.
Examples 2-8 illustrate assays of bioactivity. These methods are applicable to the compounds of the present invention having the particular linkers and scaffolds described herein, to determine their activity. […] Varying concentrations of the two compounds were added to each enzyme reaction. The FTase (protein farnesyltransferase) assay was carried out using K-Ras4B as a substrate protein, FTase (JENA Bioscience, San Diego, Calif.) and [3H]farnesyl pyrophosphate. Incubation was for 30 min at 37° C.
as §1, §2

Jurkat cells = assay: Jurkat cell growth inhibition; type: cell-based, human; conditions: Homo sapiens, Jurkat
Procedure: In Table 4 in cell GI50 values for the growth inhibition of Jurkat cells are reported. The GI50 value is the concentration of a test compound needed to produce 50% growth inhibition in the cell type listed. In Table 4 the isolated yield of each synthetic step for the synthesis of corresponding compounds are also reported.
(§3) Panc-1 cells (Pancreatic cancer cell line) and Jurkat cells (T-cell leukemia) were treated with 12.5 μM of P5-H6 or 12.5 μM of mP5-H6a for 72 hours. The cell number was counted as described in Example 5.
(§4) Cell viability was determined by Cell Counting Kit-8 (CCK-8, Dojindo, Kumamoto, Japan) as described previously (31). Cell viability was calculated relative to the DMSO control. Cell cycle profile was analyzed by flow cytometry as described previously (32).

K562 cells = assay: K562 cell growth inhibition; type: cell-based, human; conditions: Homo sapiens, K562, Tables 8-15; no unit printed there
Procedure: K562 cells are a cell line of human erythroleukemia cells. The K562 cells were treated with P3-E5, P5-H6 or GGTI-298 (a known GGTI compound illustrated in FIG. 27) for 72 hours and then cell number was counted using cell counting kit-8 (Dojindo, Gaithersburg, Md.). Cell viability relative to the DMSO control and the known GGTI compound is plotted in FIG. 23.
as §4

MDA-MB-231 = MDA-MB-231 cell growth inhibition; type: cell-based, human; conditions: no unit printed there
Procedure: (§5) In FIG. 9-24 in vitro IC50 values for the GGTase I activity are reported. In Tables 7-15 in cell GI50 values for the growth inhibition of a variety of cancer cell lines (e.g., Jurkat, K562, MDA-MB-231, BT474, MCF7, MiaPaCa2, Aspc-1, Panc-1, Capan-2, CFpac-1, and MCF10a) are reported.
as §4

BT474 = BT474 cell growth inhibition; type: cell-based, human; conditions: Homo sapiens, BT-474, Tables 8-15; no unit printed there
Procedure: as §5, §4

MCF7 = MCF7 cell growth inhibition; type: cell-based, human; conditions: Homo sapiens, MCF7, Tables 8-15; no unit printed there
Procedure: as §5, §4

MCF10a = MCF10a cell growth inhibition; type: cell-based; conditions: Homo sapiens, MCF-10A, Tables 8-15; no unit printed there
Excerpt: as §5

MiaPaCa2 = MiaPaCa2 cell growth inhibition; type: cell-based, human; conditions: Homo sapiens, MIA PaCa-2, Tables 8-15; no unit printed there
Procedure: as §5, §4

Aspc-1 = Aspc-1 cell growth inhibition; type: cell-based, human; conditions: Homo sapiens, ASPC1, Tables 8-15; no unit printed there
Procedure: as §5, §4

Panc-1 = Panc-1 cell growth inhibition; type: cell-based, human; conditions: Homo sapiens, PANC-1, Tables 8-15; no unit printed there
Procedure: as §5, §3, §4

Capan-2 = Capan-2 cell growth inhibition; type: cell-based, human; conditions: Homo sapiens, Capan-2, Tables 8-15; no unit printed there
Procedure: as §5, §4

CFpac-1 = CFpac-1 cell growth inhibition; type: cell-based, human; conditions: Homo sapiens, CFPAC-1, Tables 8-15; no unit printed there
Procedure: as §5, §4

[1] = system: geranylgeranylated Rheb (Rheb-CSVL) in HEK 293 cells; assay: Rheb-CSVL mobility shift in HEK 293 cells; type: cell-based, human; conditions: 48 hours
Excerpt: Finally, we investigated in vivo effects of compounds 22 (also known as UC-22) and 23 (also known as UC-23). Human embryonic kidney (HEK) 293 cells were transfected with the Rheb-CSVL construct that expresses the geranylgeranylated form of the Rheb protein. Inhibition of the geranylgeranylation of this protein can be detected from a shift in its mobility on SDS polyacrylamide gel; the unprocessed form appears as a slowly migrating band.
Human embryonic kidney (HEK) 293 cells expressing Myc-HA tagged-Rheb-CVSL (upper) or Myc-HA tagged-Rheb-WT (lower) were treated with P3-E5 for 48 hours and then lysed. The cell lysates were run on a SDS polyacrylamide gel and immunoblotted using anti-Myc or anti-Actin antibody. The descriptors P and U indicate processed and unprocessed Rheb, respectively.
Human embryonic kidney (HEK) 293 cells expressing Myc-HA tagged-Rheb-CVSL (upper) or Myc-HA tagged-Rheb-WT (lower) were treated with mP5-H6a (also referred to as mP5-H6), or GGTI-298 for 48 hours and then lysed. Lysates were run on a SDS polyacrylamide gel and immunoblotted with anti-Myc or anti-Actin antibody.

[2] = Tables 8-15, no unit printed there, read-out: Jurkat GI50
[3] = Homo sapiens, MDA-MB-231, Tables 8-15
[4] = Tables 3, 5, 7, read-out: In vitro (enzyme assay) IC50, GGTase I
[5] = Tables 8-15, no unit printed there (Table 7 head: μM unless otherwise specified), read-out: In vitro (GGTase I IC50)
[6] = Tables 4, 6, 7, read-out: Jurkat cell GI50

| Compound | inhibition of GGTase I (FIG. 16 controls) (GGTase-I) | inhibition of FTase activity (FIG. 16) (FTase; P3-D9, P3-E5: concentration increased to 100 (unit not given)) | GI50 (Jurkat cells; [2]) | GI50 (K562 cells) | GI50 (MDA-MB-231; [3]) | GI50 (BT474) | GI50 (MCF7) | GI50 (MiaPaCa2) | GI50 (Aspc-1) | GI50 (Panc-1) | IC50 (GGTase-I; [4]) | IC50 (GGTase-I; [5]) | GI50 (Jurkat cells; [6]) | inhibition of FTase (FTase; at concentrations at which GGTase-I was inhibited by more than 90%) | GI50 (MDA-MB-231; Tables 8-15, listed as P61B8) | GI50 (MCF10a) | GI50 (Capan-2) | GI50 (CFpac-1) | inhibition of geranylgeranylation of Rheb-CSVL (slowly migrating unprocessed band) [1] |
| --- | --- | --- | --- | --- | --- | --- | --- | --- | --- | --- | --- | --- | --- | --- | --- | --- | --- | --- | --- |
| Cn1cncc1CN1C[C@@H](Cc2ccccc2)N(S(=O)(=O)c2cccs2)Cc2cc(C#N)ccc21 [BMS225975, reference compound] | does not inhibit GGTase I | inhibits FTase |  |  |  |  |  |  |  |  |  |  |  |  |  |  |  |  |  |
| Cc1ccccc1S(=O)(=O)N1C(c2ccc(Cl)cc2)CC=C(C(=O)O)[C@@H]1c1cccc(Cl)c1 (stereo partly drawn) [compound 23] |  |  |  |  |  |  |  |  |  |  |  |  |  | did not inhibit FTase |  |  |  |  | inhibit geranylgeranylation within the cell |

Further lines, with some results ahead:

| inhibition of GGTase I (FIG. 16 controls) (GGTase-I) | inhibition of FTase activity (FIG. 16) (FTase; P3-D9, P3-E5: concentration increased to 100 (unit not given)) | GI50 (Jurkat cells; [2]) | GI50 (K562 cells) | GI50 (MDA-MB-231; [3]) | GI50 (BT474) | GI50 (MCF7) | GI50 (MiaPaCa2) | GI50 (Aspc-1) | GI50 (Panc-1) | IC50 (GGTase-I; [4]) | IC50 (GGTase-I; [5]) | GI50 (Jurkat cells; [6]) | inhibition of FTase (FTase; at concentrations at which GGTase-I was inhibited by more than 90%) | GI50 (MDA-MB-231; Tables 8-15, listed as P61B8) | Compound | GI50 (MCF10a) | GI50 (Capan-2) | GI50 (CFpac-1) | inhibition of geranylgeranylation of Rheb-CSVL (slowly migrating unprocessed band) [1] |
| --- | --- | --- | --- | --- | --- | --- | --- | --- | --- | --- | --- | --- | --- | --- | --- | --- | --- | --- | --- |
|  |  | 4.89 µM | 6.28 µM | 8.25 µM | 8.64 µM | 3.72 µM | 7.48 µM | 12.4 µM | 13 µM |  |  |  |  |  | Cc1ccccc1S(=O)(=O)N1[C@@H](c2ccc(Cl)cc2)C(C(=O)N[C@@H](Cc2ccccc2)C(N)=O)=C[C@H]1C(C)(C)C [P61A6] | 13.2 µM | 11.5 µM | 6.38 µM |  |
|  |  | 9.79 µM | 6.3 µM |  | 10.8 µM | 3.1 µM | 7.17 µM | 11.4 µM | 8.85 µM | > 10 µM | > 10 µM | 9.76 µM |  |  | Cc1ccccc1S(=O)(=O)N1[C@@H](c2ccc(Cl)cc2)C(C(=O)N[C@@H](Cc2ccccc2)C(N)=O)=C[C@H]1C(C)CC(C)(C)C (stereo partly drawn) [P61-C03] | 9.16 µM | 10.5 µM | 1.25 µM |  |
|  |  | 4.74 µM | 5.21 µM |  | 9.08 µM |  | 6.15 µM | 12.2 µM | 9.05 µM | 16 µM | 6 µM | 4.74 µM |  | 4.43 µM | CC(C)(C)[C@@H]1C=C(C(=O)N[C@@H](Cc2ccccc2)C(N)=O)[C@H](c2ccc(Br)cc2)N1S(=O)(=O)c1ccccc1Cl [P61-B08] |  | 8.32 µM | 6.16 µM |  |
|  |  | 6.58 µM | 6.7 µM | 6.68 µM | 5.28 µM |  |  |  |  |  | 8.1 µM |  |  |  | Cc1ccccc1S(=O)(=O)N1[C@@H](c2ccc(Cl)cc2)C(C(=O)N[C@@H](CC(C)C)C(N)=O)=C[C@H]1C(C)(C)C [drawing 156] |  |  |  |  |
